Test results published in patent US6124328A, “Methods and compositions for stimulating neurite growth” (Vertex Pharmaceuticals Incorporated, priority 1997, dated 2000).

Molecular target: FKBP12 (Homo sapiens, UniProt P62942)
Test: FKBP12 Binding Assay: inhibition of FKBP rotomase activity (cis-N-succinyl-Ala-Ala-Pro-Phe-p-nitroanilide / chymotrypsin), apparent Ki
Format: biochemical
Settings: compound 0.1 nM-10 μM
From the text: Preferably, the assay measures inhibition of FKBP12 rotomase activity. Such an assay has also been described by M. W. Harding et al., supra and by J. J. Siekierka et al., supra. In this assay the isomerization of an artificial substrate--N-succinyl-Ala-Ala-Pro-Phe-p-nitroanilide--is followed spectrophotometrically. The assay includes the cis form of the substrate, FKBP12, the inhibitor and chymotrypsin. Chymotrypsin is able to cleave p-nitroanilide from the trans form of the substrate, but not the cis form. Release of p-nitroanilide is measured.
In this assay various quantities of FKBP12 binding compound (0.1 nM-10 μM) were added to cis-N-succinyl-Ala-Ala-Pro-Phe-p-nitroanilide in the presence of FKBP12 and chymotrypsin. FKBP12 converts the cis form of the substrate to the trans form. This allows chymotrypsin to cleave p-nitroanilide from the substrate. Release of p-nitroanilide was measured spectrophotometrically.

Chain of FKBP12 (P62942 whole entry): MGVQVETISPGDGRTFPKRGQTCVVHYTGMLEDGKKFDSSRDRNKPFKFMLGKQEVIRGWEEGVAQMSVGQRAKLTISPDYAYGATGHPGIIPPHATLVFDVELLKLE

Structure (SMILES)	Ki (Table 2, formula II')	other results
COc1ccc(C(=O)C(=O)N2CCCC[C@H]2C(=O)OC(CCCc2ccccc2)c2ccccc2)cc1OCc1ccccc1 (some centres unmarked) [compound 103]	24 µM	
COc1cc(C(=O)C(=O)N2CCCC[C@H]2C(=O)OCCCC(C)C2CCCCC2)cc(OC)c1OC (some centres unmarked)		Ki (Table 1a, formula Ia): 0.09 µM
COc1cc(C(=O)C(=O)N2CCCC[C@H]2C(=O)OC(C)c2cc(OCc3ccncc3)cc(OCc3ccncc3)c2)cc(OC)c1OC (some centres unmarked) [compound 71]	0.014 µM	
COc1cc(C(=O)C(=O)N2CCCC[C@H]2C(=O)OC(CCCc2cccnc2)c2cccnc2)cc(OC)c1OC (some centres unmarked) [compound 61]	0.01 µM	
COc1cc(C(=O)C(=O)N2CCCC[C@H]2C(=O)OC(CCCc2ccccc2)CCCc2ccc[n+]([O-])c2)cc(OC)c1OC (some centres unmarked) [compound 22]	0.007 µM	
COc1cc(C(=O)C(=O)N2CCC[C@H]2C(=O)OC(C)c2cc(OCc3ccncc3)c(OCc3ccncc3)c(OCc3ccncc3)c2)cc(OC)c1OC (some centres unmarked) [compound 86]	0.28 µM	
CCOC(=O)CN(Cc1ccccc1)C(=O)C(=O)OC		Ki (Table 1c, formula Ic): > 1200 µM
COc1cc(C(=O)C(=O)N2CCC[C@H]2C(=O)OC(CCCc2cccnc2)CCCc2cccnc2)cc(OC)c1OC [compound 108]	0.089 µM	
COc1cc(C(=O)C(=O)N2CCCC[C@H]2C(=O)OC(CCCc2cccnc2)CCCc2cccnc2)cc(OC)c1OC [compound 106]	0.0037 µM	
COc1cc(C(=O)C(=O)N2CCCC[C@H]2C(=O)OC(C)c2ccc(OCc3ccncc3)c(OCc3ccncc3)c2OC(C)C)cc(OC)c1OC (some centres unmarked) [compound 84]	0.054 µM	
COc1cc(C(=O)C(=O)N2CCCC[C@H]2C(=O)OC(CCCc2ccccc2)c2ccc(OCc3ccncc3)c(OCc3ccncc3)c2OCc2ccncc2)cc(OC)c1OC (some centres unmarked) [compound 67]	0.046 µM	
COc1cc(C(=O)C(=O)N2CCCC[C@H]2C(=O)OC(CCCc2ccccc2)c2cccc(C(=O)c3cccnc3)c2)cc(OC)c1OC (some centres unmarked) [compound 92]	0.009 µM	
C=CCOC/C=C/C(CCCc1ccccc1)OC(=O)[C@@H]1CCCCN1C(=O)C(=O)c1cc(OC)c(OC)c(OC)c1 (some centres unmarked) [compound 51]	0.0028 µM	
COc1cc(C(=O)C(=O)N2CCCC[C@H]2C(=O)OC(CCCc2ccccc2)CCCc2ccc(C(=O)N3CCOCC3)cc2)cc(OC)c1OC (some centres unmarked) [compound 44]	0.006 µM	
COc1ccc(CCC(CCCc2ccccc2)OC(=O)[C@@H]2CCCCN2C(=O)C(=O)c2cc(OC)c(OC)c(OC)c2)cc1 (some centres unmarked) [compound 13]	0.0035 µM	
CCC(OC(=O)[C@@H]1CCCCN1C(=O)C(=O)c1cc(OC)c(OC)c(OC)c1)c1cc(OCc2ccncc2)c(OCc2ccncc2)c(OCc2ccncc2)c1 (some centres unmarked) [compound 75]	0.012 µM	
C=CCOCC#CC(CCCc1ccccc1)OC(=O)[C@@H]1CCCCN1C(=O)C(=O)c1cc(OC)c(OC)c(OC)c1 (some centres unmarked) [compound 46]	0.005 µM	
COc1cc(C(=O)C(=O)N2CCCC[C@H]2C(=O)OC(CCCc2ccccc2)CCCn2cnc3ccccc32)cc(OC)c1OC (some centres unmarked) [compound 15]	0.005 µM	
COc1cc(C(=O)C(=O)N2CCCC[C@H]2C(=O)OC(CCCc2ccccc2)c2ccc(OCc3ccncc3)c(C(=O)N3CCOCC3)c2)cc(OC)c1OC (some centres unmarked) [compound 68]	0.002 µM	

Structure (SMILES)	Ki (Table 2, formula II')	other results
COc1cc(C(=O)C(=O)N2CCCC[C@H]2C(=O)OC(C)c2cc(OCc3ccncc3)cc(OCc3ccncc3)c2)cc(OC)c1OC (some centres unmarked) [compound 72]	0.012 µM	
CC(C)C(=O)C(=O)N1CCCC[C@H]1C(=O)OC(CCCc1cccnc1)CCCc1cccnc1 [compound 109]	1.5 µM	
COc1cc(C(=O)C(=O)N2CCCC[C@H]2C(=O)OC(CCCc2ccccc2)c2cccc(C(=O)N3CCOCC3)c2)cc(OC)c1OC (some centres unmarked) [compound 56]	0.0061 µM	
COc1cc(C(=O)C(=O)N2CCCC[C@H]2C(=O)OC(CCCc2ccccc2)c2ccc(C(=O)c3ccncc3)cc2)cc(OC)c1OCc1ccccc1 (some centres unmarked) [compound 99]	15 µM	
COc1cc(C(=O)C(=O)N2CCCC[C@H]2C(=O)OC(C)c2ccc(OCc3ccncc3)c(OCc3ccncc3)c2OC(C)C)cc(OC)c1OC (some centres unmarked) [compound 85]	0.0035 µM	
CCCC(OC(=O)[C@@H]1CCCCN1C(=O)C(=O)c1cc(OC)c(OC)c(OC)c1)c1cc(OCc2ccncc2)c(OCc2ccncc2)c(OCc2ccncc2)c1 (some centres unmarked) [compound 80]	0.017 µM	
COc1cc(C(=O)C(=O)N2CCCC[C@H]2C(=O)OC(CCCc2ccccc2)c2cc(OCc3ccncc3)c(OCc3ccncc3)c(OCc3ccncc3)c2)cc(OC)c1OC (some centres unmarked) [compound 70]	0.005 µM	
C=CCOCCC(CCCc1ccccc1)OC(=O)[C@@H]1CCCCN1C(=O)C(=O)c1cc(OC)c(OC)c(OC)c1 (some centres unmarked) [compound 50]	0.011 µM	
COc1cc(C(=O)C(=O)N2CCCC[C@H]2C(=O)OC(c2cc(OCc3ccncc3)c(OCc3ccncc3)c(OCc3ccncc3)c2)C(C)C)cc(OC)c1OC (some centres unmarked) [compound 116]	0.013 µM	
COc1cc(C(=O)C(=O)N2CCCC[C@H]2C(=O)OC(CCCc2ccccc2)CCCc2ccc(C(=O)NCc3ccccc3)cc2)cc(OC)c1OC (some centres unmarked) [compound 54]	0.0016 µM	
COc1cc(C(=O)C(=O)N2CCCC[C@H]2C(=O)OC(CCCc2ccccc2)CCCc2ccc(C(=O)N3CCN(C)CC3)cc2)cc(OC)c1OC (some centres unmarked) [compound 57]	0.0056 µM	
COc1cc(C(=O)C(=O)N2CCC[C@H]2C(=O)OC(COCc2ccccc2)COCc2ccccc2)cc(OC)c1OC [compound 107]	75 µM	
COc1cc(C(=O)C(=O)N2CCCC[C@H]2C(=O)OC(CCCc2ccccc2)c2cccc(C(=O)c3ccncc3)c2)cc(OC)c1OCc1ccccc1 (some centres unmarked) [compound 94]	0.025 µM	
CC(C)(C)C(=O)C(=O)N1CCC[C@H]1C(=O)OC(CCCc1ccccc1)CCCc1cccnc1 (some centres unmarked) [compound 105]	0.34 µM	
C=CCOc1c(OC)cc(C(=O)C(=O)N2CCCC[C@H]2C(=O)OC(CCCc2ccccc2)c2cccc(C(=O)c3ccncc3)c2)cc1OC (some centres unmarked) [compound 95]	0.0036 µM	
COc1ccc(C(=O)C(=O)N2CCCC[C@H]2C(=O)OC(CCCc2ccccc2)c2cccc(C(=O)c3ccncc3)c2)cc1OCc1ccccc1 (some centres unmarked) [compound 96]	0.025 µM	
COc1cc(C(=O)C(=O)N2CCCC[C@H]2C(=O)OC(CCCc2ccccc2)CCCc2cccc(C(=O)N3CCOCC3)c2)cc(OC)c1OC (some centres unmarked) [compound 52]	0.0015 µM	
C=CCC(OC(=O)[C@@H]1CCCCN1C(=O)C(=O)c1cc(OC)c(OC)c(OC)c1)c1cc(OCc2ccncc2)c(OCc2ccncc2)c(OCc2ccncc2)c1 (some centres unmarked) [compound 118]	0.012 µM	
COc1cc(C(=O)C(=O)N2CCCC[C@H]2C(=O)OC(CCCc2ccccc2)c2cccc(CO)c2)cc(OC)c1OC (some centres unmarked) [compound 37]	0.0068 µM	

Structure (SMILES)	Ki (Table 2, formula II')	other results
COc1cc(C(=O)C(=O)N2CCCC[C@H]2C(=O)OC(CCCc2ccccc2)c2ccccc2)cc(OC)c1OCc1ccccc1 (some centres unmarked) [compound 104]	1.7 µM	
C=CC(OC(=O)[C@@H]1CCCCN1C(=O)C(=O)c1cc(OC)c(OC)c(OC)c1)c1cc(OCc2ccncc2)c(OCc2ccncc2)c(OCc2ccncc2)c1 (some centres unmarked) [compound 78]	0.073 µM	
COc1cc(C(=O)C(=O)N2CCCC[C@H]2C(=O)OC(CCCc2ccccc2)CCCc2ccc(C(=O)N3CCSCC3)cc2)cc(OC)c1OC (some centres unmarked) [compound 55]	0.0024 µM	
COc1cc(C(=O)C(=O)N2CCCC[C@H]2C(=O)OC(c2cc(OCc3ccncc3)c(OCc3ccncc3)c(OCc3ccncc3)c2)C(C)C)cc(OC)c1OC (some centres unmarked) [compound 115]	0.00039 µM	
COc1cc(C(=O)C(=O)N2CCCC[C@H]2C(=O)OC(C)c2cc(OCc3ccncc3)c(C)c(OCc3ccncc3)c2)cc(OC)c1OC (some centres unmarked) [compound 73]	0.036 µM	
O=C(Cc1ccccc1[N+](=O)[O-])C(=O)N1CCCC[C@H]1C(=O)OCc1ccccc1 [Ia B=Benzyl, D=2-Nitrobenzyl, n=2]		Ki (Table 1a, formula Ia): 26 µM
COc1cc(C(=O)C(=O)N2CCCC[C@H]2C(=O)OC(C)c2cc(OCc3ccncc3)c(OCc3ccncc3)c(OCc3ccncc3)c2)cc(OC)c1OC (some centres unmarked) [compound 69]	0.036 µM	
COc1cc(C(=O)C(=O)N2CCCC[C@H]2C(=O)OC(C)c2ccc(OCc3ccncc3)c(OCc3ccncc3)c2)cc(OC)c1OC (some centres unmarked) [compound 66]	0.035 µM	
COc1cc(C(=O)C(=O)N2CCCC[C@H]2C(=O)OC(C)c2cc(OCc3ccsc3)c(OCc3ccsc3)c(OCc3ccsc3)c2)cc(OC)c1OC (some centres unmarked) [compound 83]	> 1 µM	
COc1cc(C(=O)C(=O)N2CCCC[C@H]2C(=O)OC(c2cccnc2)c2cccc(OCc3ccncc3)c2)cc(OC)c1OC (some centres unmarked) [compound 63]	0.013 µM	
COc1ccc(C(=O)C(=O)N2CCCC[C@H]2C(=O)OC(CCCc2ccccc2)c2cccc(OCc3ccncc3)c2)cc1OC (some centres unmarked) [compound 93]	0.0075 µM	
C=CCC(OC(=O)[C@@H]1CCCCN1C(=O)C(=O)c1cc(OC)c(OC)c(OC)c1)c1ccc(OCc2ccncc2)c(OCc2ccncc2)c1 (some centres unmarked) [compound 62]	0.062 µM	
COc1cc(C(=O)C(=O)N2CCCC[C@H]2C(=O)OC(CCCc2ccccc2)CCCc2ccccn2)cc(OC)c1OC (some centres unmarked) [compound 20]	0.0065 µM	
CCCC(OC(=O)[C@@H]1CCCCN1C(=O)C(=O)c1cc(OC)c(OC)c(OC)c1)c1cc(OCc2ccncc2)c(OCc2ccncc2)c(OCc2ccncc2)c1 (some centres unmarked) [compound 81]	0.005 µM	
COc1cc(C(=O)C(=O)N2CCCC[C@H]2C(=O)OC(C)c2cc(OCc3ccccc3)c(OCc3ccccc3)c(OCc3ccccc3)c2)cc(OC)c1OC (some centres unmarked) [compound 90]	2.6 µM	
COc1cc(C(=O)C(=O)N2CCCC[C@H]2C(=O)OC(CCCc2ccccc2)CCCc2ccc(C(=O)N3CCCCC3)cc2)cc(OC)c1OC (some centres unmarked) [compound 47]	0.007 µM	
COc1cc(C(=O)C(=O)N2CCCC[C@H]2C(=O)OC(CCCc2ccccc2)CCCc2ccc(C(=O)N(C)C)cc2)cc(OC)c1OC (some centres unmarked) [compound 43]	0.005 µM	
COc1cc(C(=O)C(=O)N2CCCC[C@H]2C(=O)OC(CCCc2ccccc2)c2ccc(OCc3ccncc3)c(OCc3ccncc3)c2)cc(OC)c1OC (some centres unmarked) [compound 65]	0.0041 µM	
